Patent US7932283B2, “Fungicide N-cyclopropyl-sulfonylamide derivatives” (Bayer Cropscience AG, priority 2006, dated 2011)

Assay: logP by HPLC on reversed-phase column (C 18), EEC Directive 79/B31 Annex V.A8, methods A and B
Format: physicochemical
Details: reversed-phase HPLC column (C 18), linear gradient 10% to 90% acetonitrile
Experimental: Calibration was carried out using unbranched alkan-2-ones (having 3 to 16 carbon atoms) with known logP values (determination of the logP values by the retention times using linear interpolation between two successive alkanones).

[1] = HPLC reversed-phase C 18, method B: 40° C., 0.1% aqueous formic acid and acetonitrile
[2] = HPLC reversed-phase C 18, method A: 43° C., 0.1% aqueous phosphoric acid, acetonitrile

SMILES: Cc1nc(C(F)(F)F)c(C(=O)N(C2CC2)S(=O)(=O)c2ccc(Oc3ccccc3)cc2)s1 [Compound 66]
- chromatographic logP [1]: 4.4

SMILES: Cc1nc(C(=O)N(C2CC2)S(=O)(=O)c2ccc(C(F)(F)F)cc2)cs1 [Compound 68]
- chromatographic logP [2]: 3.18

SMILES: Cc1nc(C(=O)N(C2CC2)S(=O)(=O)c2ccc(O)c(C(F)(F)F)c2)cs1 [Compound 69]
- chromatographic logP [2]: 3.63

SMILES: Cc1nc(C(=O)N(C2CC2)S(=O)(=O)c2ccc(O)c(O)c2)cs1 [Compound 70]
- chromatographic logP [2]: 3.46

SMILES: Cc1nc(C(=O)N(C2CC2)S(=O)(=O)c2ccc(O)cc2O)cs1 [Compound 71]
- chromatographic logP [2]: 3.03

SMILES: Cc1nc(C(=O)N(C2CC2)S(=O)(=O)c2ccc(C(C)(C)C)cc2)cs1 [Compound 72]
- chromatographic logP [2]: 3.59

SMILES: Cc1cc(C(=O)N(C2CC2)S(=O)(=O)c2cccc(O)c2O)nn1C [Compound 74]
- chromatographic logP [1]: 2.7

SMILES: Cc1cc(C(=O)N(C2CC2)S(=O)(=O)c2ccc(O)c(O)c2O)nn1C [Compound 75]
- chromatographic logP [1]: 3.3

SMILES: Cc1cc(C(=O)N(C2CC2)S(=O)(=O)c2ccc(Oc3ccccc3)cc2)nn1C [Compound 76]
- chromatographic logP [1]: 3.4

SMILES: Cc1cc(C(=O)N(C2CC2)S(=O)(=O)c2ccc(Oc3ccc(Br)cc3)cc2)nn1C [Compound 77]
- chromatographic logP [1]: 4

SMILES: CC(C)c1nn(C)c(F)c1C(=O)N(C1CC1)S(=O)(=O)c1cccc(O)c1O [Compound 93]
- chromatographic logP [1]: 3.6

SMILES: CC(C)c1nn(C)c(F)c1C(=O)N(C1CC1)S(=O)(=O)c1ccccc1O [Compound 95]
- chromatographic logP [1]: 3.1

SMILES: CC(C)c1nn(C)c(F)c1C(=O)N(C1CC1)S(=O)(=O)c1ccc(O)cc1O [Compound 96]
- chromatographic logP [1]: 3.8

SMILES: CC(C)c1nn(C)c(F)c1C(=O)N(C1CC1)S(=O)(=O)c1ccc(C(F)(F)F)cc1O [Compound 97]
- chromatographic logP [1]: 4

SMILES: CC(C)c1nn(C)c(F)c1C(=O)N(C1CC1)S(=O)(=O)c1ccccc1C(F)(F)F [Compound 98]
- chromatographic logP [1]: 3.4

SMILES: Cn1nc(-c2ccccc2)c(C(=O)N(C2CC2)S(=O)(=O)c2ccc(O)c(O)c2O)c1F [Compound 100]
- chromatographic logP [1]: 4.3

SMILES: Cn1nc(-c2ccccc2)c(C(=O)N(C2CC2)S(=O)(=O)c2cccc(O)c2O)c1F [Compound 101]
- chromatographic logP [1]: 3.7

SMILES: Cn1nc(C(F)F)c(C(=O)N(C2CC2)S(=O)(=O)c2ccccc2O)c1F [Compound 103]
- chromatographic logP [1]: 2.8

SMILES: Cn1nc(C(F)F)c(C(=O)N(C2CC2)S(=O)(=O)c2ccc(O)cc2O)c1F [Compound 105]
- chromatographic logP [1]: 3.4

SMILES: Cn1nc(C(F)F)c(C(=O)N(C2CC2)S(=O)(=O)c2ccccc2C(F)(F)F)c1F [Compound 106]
- chromatographic logP [1]: 3

SMILES: Cn1nc(C(F)F)c(C(=O)N(C2CC2)S(=O)(=O)c2ccc(Oc3ccccc3)cc2)c1F [Compound 107]
- chromatographic logP [1]: 3.8

SMILES: Cn1nc(C(F)(F)F)c(C(=O)N(C2CC2)S(=O)(=O)c2ccc(O)c(O)c2O)c1F [Compound 108]
- chromatographic logP [1]: 4.1

SMILES: CC(F)c1nn(C)cc1C(=O)N(C1CC1)S(=O)(=O)c1cccc(O)c1O (centres unmarked) [Compound 119]
- chromatographic logP [1]: 2.8

SMILES: CC(F)c1nn(C)cc1C(=O)N(C1CC1)S(=O)(=O)c1ccc(O)c(O)c1O (centres unmarked) [Compound 120]
- chromatographic logP [1]: 3.4

SMILES: CC(F)c1nn(C)cc1C(=O)N(C1CC1)S(=O)(=O)c1ccc(Oc2ccccc2)cc1 (centres unmarked) [Compound 121]
- chromatographic logP [1]: 3.5

SMILES: CC(F)c1nn(C)cc1C(=O)N(C1CC1)S(=O)(=O)c1ccc(Oc2ccc(Br)cc2)cc1 (centres unmarked) [Compound 122]
- chromatographic logP [1]: 4.1

SMILES: Cc1nn(C)c(F)c1C(=O)N(C1CC1)S(=O)(=O)c1ccccc1 [Compound 181]
- chromatographic logP [2]: 2.28

SMILES: COc1ccccc1S(=O)(=O)N(C(=O)c1c(C)nn(C)c1F)C1CC1 [Compound 182]
- chromatographic logP [2]: 2.06

SMILES: Cc1ccc(S(=O)(=O)N(C(=O)c2c(C)nn(C)c2F)C2CC2)cc1 [Compound 183]
- chromatographic logP [2]: 2.59

SMILES: COc1ccc(S(=O)(=O)N(C(=O)c2c(C)nn(C)c2F)C2CC2)cc1 [Compound 184]
- chromatographic logP [2]: 2.35

SMILES: Cc1nn(C)c(F)c1C(=O)N(C1CC1)S(=O)(=O)c1ccc([N+](=O)[O-])cc1 [Compound 185]
- chromatographic logP [2]: 2.54

SMILES: Cc1nn(C)c(F)c1C(=O)N(C1CC1)S(=O)(=O)c1ccc(O)cc1 [Compound 190]
- chromatographic logP [2]: 2.83

SMILES: Cc1nn(C)c(F)c1C(=O)N(C1CC1)S(=O)(=O)c1cc(O)ccc1O [Compound 191]
- chromatographic logP [2]: 2.91

SMILES: Cc1nn(C)c(F)c1C(=O)N(C1CC1)S(=O)(=O)c1cc(O)cc(O)c1 [Compound 193]
- chromatographic logP [2]: 3.48

SMILES: Cc1nn(C)c(F)c1C(=O)N(C1CC1)S(=O)(=O)c1cccc([N+](=O)[O-])c1 [Compound 195]
- chromatographic logP [2]: 2.48

SMILES: Cc1nn(C)cc1C(=O)N(C1CC1)S(=O)(=O)c1ccccc1O [Compound 197]
- chromatographic logP [2]: 1.95

SMILES: Cc1nn(C)c(O)c1C(=O)N(C1CC1)S(=O)(=O)c1ccccc1O [Compound 199]
- chromatographic logP [2]: 2.58

SMILES: Cn1cc(C(=O)N(C2CC2)S(=O)(=O)c2ccccc2O)c(C(F)(F)F)n1 [Compound 200]
- chromatographic logP [2]: 2.71

SMILES: Cc1c(C(=O)N(C2CC2)S(=O)(=O)c2ccccc2O)cnn1-c1ccccc1 [Compound 201]
- chromatographic logP [2]: 2.97

SMILES: Cc1nn(C)c(F)c1C(=O)N(C1CC1)S(=O)(=O)c1ccccc1[N+](=O)[O-] [Compound 202]
- chromatographic logP [2]: 2.25

SMILES: Cc1nn(C)c(F)c1C(=O)N(C1CC1)S(=O)(=O)c1ccccc1-c1ccccc1 [Compound 206]
- chromatographic logP [2]: 2.96

SMILES: Cn1nc(C(F)(F)F)c(C(=O)N(C2CC2)S(=O)(=O)c2ccccc2O)c1O [Compound 208]
- chromatographic logP [2]: 3.27

SMILES: Cc1nn(C)c(F)c1C(=O)N(C1CC1)S(=O)(=O)c1ccccc1C#N [Compound 216]
- chromatographic logP [2]: 2.07

SMILES: Cc1nn(C)c(F)c1C(=O)N(C1CC1)S(=O)(=O)c1c(F)cccc1F [Compound 217]
- chromatographic logP [2]: 2.25

SMILES: Cn1cc(C(=O)N(C2CC2)S(=O)(=O)c2cccc(O)c2O)c(C(F)F)n1 [Compound 221]
- chromatographic logP [1]: 2.9

SMILES: Cn1nc(C2CC2)c(C(=O)N(C2CC2)S(=O)(=O)c2ccc(O)c(O)c2O)c1O [Compound 223]
- chromatographic logP [1]: 4.2

SMILES: Cn1nc(C2CC2)c(C(=O)N(C2CC2)S(=O)(=O)c2ccc(O)c(O)c2O)c1F [Compound 224]
- chromatographic logP [1]: 3.9

SMILES: Cn1nc(C2CC2)c(C(=O)N(C2CC2)S(=O)(=O)c2cccc(O)c2O)c1Cl [Compound 225]
- chromatographic logP [1]: 4.7

SMILES: Cc1nn(C)c(C#N)c1C(=O)N(C1CC1)S(=O)(=O)c1ccc(O)c(O)c1O [Compound 228]
- chromatographic logP [1]: 3.9

SMILES: Cc1nn(C)c(N(C)C)c1C(=O)N(C1CC1)S(=O)(=O)c1ccc(O)c(O)c1O [Compound 229]
- chromatographic logP [1]: 3.6

SMILES: COc1c(C(=O)N(C2CC2)S(=O)(=O)c2ccc(O)c(O)c2O)c(C)nn1C [Compound 230]
- chromatographic logP [1]: 3.2

SMILES: Cc1nn(C)c(Oc2ccc(O)cc2)c1C(=O)N(C1CC1)S(=O)(=O)c1ccccc1O [Compound 261]
- chromatographic logP [1]: 3.6

SMILES: COc1nn(C)c(O)c1C(=O)N(C1CC1)S(=O)(=O)c1cccc(O)c1O [Compound 278]
- chromatographic logP [1]: 3.2

SMILES: COc1nn(C)c(O)c1C(=O)N(C1CC1)S(=O)(=O)c1ccc(Oc2ccccc2)cc1 [Compound 280]
- chromatographic logP [1]: 3.8

SMILES: COc1nn(C)c(O)c1C(=O)N(C1CC1)S(=O)(=O)c1ccc(O)c(O)c1O [Compound 282]
- chromatographic logP [1]: 3.8

SMILES: COc1nn(C)c(O)c1C(=O)N(C1CC1)S(=O)(=O)c1ccc(Oc2ccc(Br)cc2)cc1 [Compound 284]
- chromatographic logP [1]: 4.3
